Measurements: patent US7943606B2, “Compositions and methods to control abnormal cell growth” (CanCure Laboratories, LLC, priority 2005, dated 2011)
Where a name gives a salt, the structure may show the parent alone. Read-outs that look alike come from different tables or passages of the source.

Experiments:
CaOV-3 cells = test: Viability of CaOV-3 ovarian cancer cells (MTT assay); assay type: cell-based, human; conditions: for inhibition at 100 µM / IC50: Homo sapiens, Caov-3, 72 hours; for inhibition at 100 µM: read-out: Decrease in cell number (maximal decrease = 100%), CaOV-3
Description: (§1) To quantify cell death, around the time when significant and characteristic morphological changes took place, cells were pulse-labeled for 10 minutes with [^3H]thymidine to measure DNA activity as described elsewhere [Tomono, M. and Kiss, Z. (1995), “Ethanol enhances the stimulatory effects of insulin and insulin-like growth factor-I on DNA synthesis in NIH 3T3 fibroblasts,” Biochem. Biophys. Res. Commun. 208, 63-67]. Also, cells were collected as suspensions using trypsin, an established method in cell biology, followed by re-plating of cells in fresh tissue culture medium. If no viable cells were obtained after one week in culture, it meant that the cells at the time of re-plating were dead. Survival values obtained with untreated cells were considered 100%. For the determination of relative number of viable cells after treatments, in most cases the MTT assay was used. This calorimetric assay is based on the ability of living cells, but not dead cells, to reduce 3-(4,5-dimethyl thiazol-2-yl)-2,5-diphenyltetrazolium bromide [Carmichael, J, De Graff, W. G., Gazdar, A. F., Minna, J. D. and Mitchell, J. B. (1987), “Evaluation of tetrazolium-based semi-automated calorimetric assay: Assessment of chemosensitivity testing,” Cancer Res. 47, 936-942]. For this assay, cells were plated in 96-well plates, and the MTT assay was performed both in untreated and treated cell cultures. The MTT assay also was performed at the start of treatments to allow assessment of proliferation rates in the control and treated cell cultures.
(§2) NIH3T3, T47D, A-431, HT-29, and MEL-28 cells were cultured as indicated earlier. CaOV-3 human ovarian cancer cells were cultured in DMEM containing 10% FBS. ZR-75-1 human estrogen receptor-positive breast cancer cells were maintained in RPMI 1640 medium supplemented with 10% FBS. HTB-157 human fetal fibroblasts, MEL-24 human malignant melanoma cells, Hep G2 human hepatoblastoma cells, and CaCO-2 human colon adenocarcinoma cells were maintained in Eagles's MEM containing 10% FBS. MB-231 human estrogen receptor-negative breast cancer cells were maintained in Leibovitz's L-15 medium supplemented with 10% FBS. Cells were seeded into 96-well plates and treated at ˜70-90% confluency. Two hours prior to treatments the medium was changed for fresh 10% serum medium, and then the cells were incubated for 10 days in the absence (□) or presence of 50 μM CCDTHT ? or 100 μM CCDTHT (▪). The medium was changed and the cells were re-treated on days 3 and 6. The MTT assay was used to determine cell viability on day 10. The data, shown in FIG. 6, are the mean±std. dev. of 8 incubations in one experiment. (The experiment was repeated twice with similar results).
The MRC-5 cell line is derived from normal lung tissue of a […] fetus. MRC-5 cells were maintained and treated in Eagles Medium with Hanks' BSS containing 10% fetal bovine serum. The T47D cells were maintained and treated in RPMI 1640 medium supplemented with 0.2 IU bovine insulin and 10% fetal bovine serum. The CaOV-3 human ovarian cancer cells were cultured in Dulbecco's modified Eagle's medium containing 10% fetal bovine serum. The cells were seeded in 96-well plates either at 10,000 cells per well or 30,000 cells per well to examine the antiproliferative and cytotoxic effects of various CC compounds, respectively. The cells were incubated for 24 hours, then the medium was changed followed by the treatments of cultures 2 hours after the medium change. At this point, cell cultures seeded at 10,000 cells per well and 30,000 cells per well were 25-35% and 80-90% confluent, respectively. Incubations were continued for 72 hours followed by the MTT assay. The data, shown in TABLE 2, indicate the inhibitory concentrations of CC compounds (IC50) required for 50% decrease in the number of viable cells. These numbers are calculated from the mean of 4 incubations in one experiment (the experiment was repeated once with similar results). […]

NIH 3T3 cells = test: Viability of NIH 3T3 normal fibroblasts (MTT assay); assay type: cell-based; conditions: 72 hours; for cytotoxicity at 100 µM: Mus musculus, NIH3T3, read-out: Decrease in cell number (maximal decrease = 100%), NIH 3T3
Description: as §1
The NIH 3T3 (normal) mouse fibroblast, A431 human epidermoid adenocarcinoma, and MCF-7 human breast cancer cells were cultured in DMEM medium containing 10% FBS. The MEL-28 human melanoma cells were cultured in MEM medium containing 10% FBS. The HT-29 human colon adenocarcinoma cells were cultured in McCoy's 5a medium containing 10% FBS. The A549 human lung carcinoma cells were maintained in Ham's F12K medium containing 10% FBS. Cells were seeded into 96-well plates and treated at ˜70-90% confluency. Two hours before treatments the medium was changed for fresh 10% serum medium, and then the cells were incubated for 72 hours in the presence of 0-200 μM of CCompound1 (●) or CCompound3 (CCDTHT) (▴), as indicated. The MTT assay was used to determine cell viability after treatments. The values, shown in FIGS. 5A-5F and expressed as percent decrease in viability compared to the untreated control cells, are the mean±std. dev. of 8 incubations in one experiment. Similar results were obtained in another experiment.
as §2
NIH 3T3, MEL-28, MEL-24, CaOV-3, ZR-75-1, and T47D cells were cultured as described above. The OVCAR human ovarian cancer cells were cultured in DMEM containing 10% FBS. Cells were seeded into 96-well plates and used at ˜60-80% confluency. […]

OVCAR cells = test: Viability of OVCAR ovarian cancer cells (MTT assay); assay type: cell-based; conditions: Homo sapiens, 72 hours, read-out: Decrease in cell number (maximal decrease = 100%), OVCAR
Description: as §1
(§3) NIH 3T3, MEL-28, MEL-24, CaOV-3, ZR-75-1, and T47D cells were cultured as described above. The OVCAR human ovarian cancer cells were cultured in DMEM containing 10% FBS. Cells were seeded into 96-well plates and used at ˜60-80% confluency. Two hours before treatments the medium was changed for fresh 10% serum medium, and then the cells were incubated for 72 hours in the absence or presence of 100 μM of each of CC compounds as listed in TABLE 3. The inhibitory effects of CC compounds on cell proliferation are expressed as percent decrease compared to untreated cell cultures (the greater the number, the greater the inhibitory effect of the CC compound). […] Also, for the treatment of ovarian cancer and breast cancer, CCDTHT seems to be the best choice (although in this experiment CCompounds21-26 were not tested).

MEL-24 cells = test: Viability of MEL-24 melanoma cells (MTT assay); assay type: cell-based; conditions: Homo sapiens; for inhibition at 100 µM: 72 hours, read-out: Decrease in cell number (maximal decrease = 100%), MEL-24
Description: as §1, §2, §3

Structure (SMILES)	sensitivity to the inhibitory actions, CaOV-3 (CaOV-3 cells; 50 and 100 μM, 10 days, MTT)	inhibition at 100 µM (CaOV-3 cells) [%]	IC50 (CaOV-3 cells; 10,000 cells per well (25-35% confluent), MTT, read-out: IC50 values, Antiproliferative, CaOV-3) [µM]	IC50 (CaOV-3 cells; 30,000 cells per well (80-90% confluent), MTT, read-out: IC50 values, Cytotoxic, CaOV-3) [µM]	sensitivity compared with HaCaT cells, NIH 3T3 fibroblasts (NIH 3T3 cells; 50 and 100 μM, MTT)	cytotoxicity at 100 µM (NIH 3T3 cells) [%]	inhibition at 100 µM (OVCAR cells) [%]	inhibition at 100 µM (MEL-24 cells) [%]	cytotoxicity at 100 µM (MEL-24 cells; 240 h, 10 days, MTT, read-out: reduction in the number of viable cells, MEL-24) [%]
CC[N+](C)(CC)CCOCc1ccc2sc3ccccc3c(=O)c2c1.[I-] [CCDTHT, N,N-diethyl-N-methyl-2-[(9-oxo-9H-thioxanthen-2-yl)methoxy]-ethanaminium iodide]	very sensitive	84	38	39	significantly less sensitive	29	63	15	≤ 50
CC[N+](CC)(CC)CCCOCc1ccc2sc3ccccc3c(=O)c2c1 [CCcompound9, N,N,N-Triethyl-3-[(9-oxo-9H-thioxanthen-2-yl)methoxy]-propane-1-aminium iodide]	–	45	–	–	–	22	41	4	–
CC[N+](C)(CC)CCCOCc1ccc2sc3ccccc3c(=O)c2c1 [CCcompound10, N,N-Diethyl-N-methyl-3-[(9-oxo-9H-thioxanthen-2-yl)methoxy]-propane-1-aminium iodide]	–	45	–	–	–	21	38	15	–
CC[N+](C)(C)CCCOCc1ccc2sc3ccccc3c(=O)c2c1 [CCcompound11, N,N-Dimethyl-N-ethyl-3-[(9-oxo-9H-thioxanthen-2-yl)methoxy]-propane-1-aminium iodide]	–	66	–	–	–	21	62	20	–
CC[NH+](CC)CCCOCc1ccc2sc3ccccc3c(=O)c2c1 [CCcompound12, 2-{[3-(Diethylamino)propoxy]meth-yl}-9H-thioxanthen-9-one hydrochloride]	–	80	–	–	–	0	30	73	–
C[N+](C)(CCO)Cc1ccc2sc3ccccc3c(=O)c2c1 [CCcompound13, 2-Hydroxy-N,N-dimethyl-N-[(9-oxo-9H-thioxanthen-2-yl)methyl]-ethanaminium bromide]	–	53	–	–	–	25	27	12	–
CC[N+](CC)(CCO)Cc1ccc2sc3ccccc3c(=O)c2c1 [CCcompound14, 2-Hydroxy-N,N-Diethyl-N-[(9-oxo-9H-thioxanthen-2-yl)methyl]-ethanaminium bromide]	–	69	–	–	–	30	65	21	–
C[N+](C)(CCCO)Cc1ccc2sc3ccccc3c(=O)c2c1 [CCcompound15, 3-Hydroxy-N,N-dimethyl-N-[(9-oxo-9H-thioxanthen-2-yl)methyl]propane-1-aminium bromide]	–	28	–	–	–	11	26	0	–
CC[N+](CC)(CCCO)Cc1ccc2sc3ccccc3c(=O)c2c1 [CCcompound16, 3-Hydroxy-N,N-diethyl-N-[(9-oxo-9H-thioxanthen-2-yl)methyl]-propane-1-aminium bromide]	–	12	–	–	–	19	0	0	–
